Experimental data from patent US20230233583A1, “USE OF PHYTOCANNABINOIDS FOR TREATING MULTIPLE MYELOMA” (priority 2020, published 2023).

Key:
RPMI [1] = assay: Invasion assay in co-culture of HuOB and RPMI; type: cell-based, human; settings: for effect on MM cell invasion, in words: RPMI in co-culture with HuOB, 24 hours
Experimental: Invasion assay: HuOB cells (1.5×10^4) were plated on the surface of Matrigel in a BioCoat™ Matrigel® Invasion Chamber, 8.0 μm PET Membrane (Coming®, cod. 354480) and incubated for two days. After, U266 and RPMI (2.5×10^4) were pre-stained with Calcein (1 μM) for two hours, then treated with CBG (12.5 μM), CBC (12.5 μM), CBN (12.5 μM) and CBDV (6.25 μM) and added in the chambers. MM cells with HuOB, untreated, were used as invasion positive control, MM cells without HuOB cells were used as negative control. After 24 hours, the number of MM cells that invaded the Matrigel were analysed via fluorescent microscope. Eight 10× sections images were counted for each chamber.
Invasion assay in co-culture of HuOB and MM cell lines: This study evaluated the effect of phytocannabinoids in reducing the invasion of MM cell lines toward HuOB. HuOB were plated on the surface of Matrigel in the BioCoat™ Matrigel® Invasion Chamber, 8.0 μm PET Membrane (Corning®, cod. 354480) and incubated for two days. After, U266 or RPMI were pre-stained with Calcein (10 μM) for two hours, then treated with CBG (25 μM), CBC (25 μM), CBN (25 μM) and CBDV (12.5 μM) and added in the chambers. MM cells with HuOB, untreated, were used as an invasion positive control, MM cells without HuOB cells were used as a negative control. After 24 hours, the number of MM cells that invaded the Matrigel were analysed via fluorescent microscope. Eight 10× sections images were counted for each chamber.

RPMI [2] = assay: MTT cytotoxicity assay in RPMI MM cell line; settings: for IC50: Homo sapiens, 72 h, read-out: IC50 (μM) ± S.D.; for % VIABILITY ± S.D.: RPMI, daily, 72 hours, vs vehicle
Experimental: (§1) MTT cytotoxicity assay: MM cell lines (4×10^4 cells/ml) were seeded in 96-well plates, in a final volume of 100 μl/well. After 24 hours, CBG, CBC, CBN, CBDV alone and in combination or vehicle were added at different concentrations, for 72 hours. At least six replicates were used for each treatment. At the indicated time point, cell viability was assessed by adding 0.8 mg/ml of 3-[4,5-dimethylthiazol-2-yl]-2,5 diphenyl tetrazolium bromide (MTT) (Sigma-Aldrich) to the media. After 3 hours, the plates were centrifuged, the supernatant was removed, and the pellet was solubilized with 100 μl/well dimethyl sulfoxide (DMSO). The absorbance of the samples against a background control (medium alone) was measured at 570 nm using an ELISA reader microliter plate (BioTek™ Instruments, Winooski, Vt., USA).
(§2) Cells were treated with different doses of CBG, CBC, CBN and CBDV (up to 100 μM) and percentage of cell viability was evaluated by the MTT assay.
(§3) The cannabinoids were administered daily for 72 hours, as in previous experiments at the desired doses. Each combination was evaluated in six wells and in two separate experiments. MTT assay was used to analyze the cell cytotoxicity. The values in the tables are represented as % of cell viability compared to vehicle-treated cells.

U266 = assay: MTT cytotoxicity assay in U266 MM cell line; settings: for IC50: Homo sapiens, U-266, 72 h, read-out: IC50 (μM) ± S.D.; for % VIABILITY ± S.D.: daily, 72 hours, vs vehicle
Experimental: as §1, §2, §3

[3] = test system: MM cell lines U266, SKO and RPMI; assay: Annexin-V/PI staining, FACS analysis; type: cell-based, human; settings: 48 hours, daily, CBG, CBN, CBDV 25 μM, CBC 75 μM
Experimental: Cell lines were treated for 48 hours with CBG (25 μM), CBN (25 μM), CBDV (25 μM) or CBC (75 μM) and the percentage of Annexin-V/PI positive cells were determined by FACS analysis. Values in overlays on each plot: upper left=necrotic cells; upper right=late death cells (both apoptotic and necrotic); lower left=live cells; and lower right=apoptotic cells. Data for each phytocannabinoid (lower plots in each Figure) expressed as percentage of PI positive cells with respect to vehicle treated cells (upper plots in each Figure).
Apoptosis assays and PI staining: Cell death was evaluated using the Annexin V-FITC Apoptosis detection Kit (eBioscience) followed by biparametric fluorescence-activated cell sorting (FACS) analysis. Cells, at a density of 4×10^4 cells/ml, were treated with CBG, CBC, CBN or CBDV for a maximum of 48 hours, with daily administration, and then incubated with Annexin V-FITC and propidium iodide (PI), following the protocol provided. The percentage of positive cells determined over 10,000 events was analysed on a FACScan cytofluorimeter using the CellQuest software.
Phytocannabinoids induce necrotic cell death in MM cell lines: To evaluate the cytotoxic mechanism induced by the phytocannabinoids, MM cell lines were treated daily with a cytotoxic dose for each phytocannabinoid (CBG: 25 μM; CBC 75 μM; CBN 25 μM; CBDV 25 μM) for 48 hours and then Annexin-V/PI cell positivity was evaluated by FACS analysis. The results evidenced that all of the phytocannabinoids induced necrotic cell death but had different efficacies (FIGS. 5-16). To confirm the necrotic cell death mechanism, MM cell lines were treated as above and DNA damage was evaluated by H2AX (a marker to examine the DNA damage produced and the subsequent repair of the DNA lesion) Western blot analysis and Comet assay (permits the analysis of DNA damage in single cell preparations). The result confirmed the DNA damage induced by the phytocannabinoid analysed. In particular, an increase of H2AX levels were observed by Western blot (FIGS. 17-20) and DNA damage by Comet assay that evidenced structures resembling comets in the treated cell lines (FIGS. 21-24).

in vitro = type: cell-based, human; settings: human, HuOB, daily, 72 hours, vs vehicle, read-out: % VIABILITY ± S.D.; for viability at 72 h, 12.5 μM: single phytocannabinoid 12.5 μM; for viability at 72 h, 25 μM: single phytocannabinoid 25 μM
Experimental: (§4) At least six replicates were used for each treatment.
(§5) Cell culture: The HuOB, an immortalized human osteoblast cell line derived from femoral head (INS-CI-1005, Inscreeex GmbH, Germany) was grown in HuOB Maintenance Medium (INS-ME-1006).
(§6) IC50 values, relative to daily administration, were obtained. The efficacy in reducing cell viability was generally highest for CBDV, followed by CBN, CBC and CBG.
(§7) Phytocannabinoid combinations in HuOB cell line viability: Before setting up the co-culture experiments with HuOB and MM cell lines, the less cytotoxic doses of phytocannabinoid combinations were evaluated in HuOB. […] The standard deviation of the data reported was <10%. […] Additionally, a triple combination with CBG, CBC and CBN at 12.5 μM for each phytocannabinoid, was performed (Table 9).

HuOB cell line = assay: cells; type: cell-based, human; settings: for IC50: Homo sapiens, 72 h, read-out: IC50 (μM) ± S.D.
Experimental: as §4, §5, §6, §7

SKO = assay: MTT cytotoxicity assay in SKO MM cell line; settings: for IC50: Homo sapiens, 72 h, read-out: IC50 (μM) ± S.D.; for % VIABILITY ± S.D.: SKO, daily, 72 hours, vs vehicle
Experimental: as §1, §2, §3

[4] = single phytocannabinoid 12.5 μM
[5] = U266, single phytocannabinoid 12.5 μM
[6] = U266, single phytocannabinoid 25 μM

Structure (SMILES) | AVERAGE OF CELLS/square (MM cells that invaded the Matrigel) (RPMI [1]) [CELLS/square] | IC50 (RPMI [2]) [µM] | % VIABILITY ± S.D. (RPMI [2]; [4]) [%] | % VIABILITY ± S.D. (RPMI [2]; single phytocannabinoid 25 μM) [%] | IC50 (U266) [µM] | % VIABILITY ± S.D. (U266; [5]) [%] | % VIABILITY ± S.D. (U266; [6]) [%] | necrotic cell death (Annexin-V/PI positive cells), in words [3] | viability at 72 h, 12.5 μM (in vitro) [%] | viability at 72 h, 25 μM (in vitro) [%] | IC50 (HuOB cell line) [µM] | IC50 (SKO) [µM] | % VIABILITY ± S.D. (SKO; [4]) [%] | % VIABILITY ± S.D. (SKO; single phytocannabinoid 25 μM) [%] | cytotoxicity in HuOB cell line, in words (HuOB cell line; HuOB, 72 hours, daily administration) | effect on MM cell invasion, in words (RPMI [1])
CCCCCc1cc(O)c2c(c1)OC(C)(CCC=C(C)C)C=C2 (centres unmarked) [CBC, 2-methyl-2-(4-methylpent-3-enyl)-7-pentylchromen-5-ol] | 29.3 ± 1.7 | 49.6 ± 2.1 | 104.9 ± 3.6 | 98.3 ± 5.1 | 78.8 ± 3.4 | 106.2 ± 3.5 | 101.2 ± 7.2 | induce necrosis | 100 ± 8.3 | 99.8 ± 8.1 | 42.4 ± 1.05 | 69.7 ± 3.5 | 96.5 ± 6.7 | 94.3 ± 6.3 | – | –
C=C(C)[C@@H]1CCC(C)=C[C@H]1c1c(O)cc(CCC)cc1O [CBDV, 2-[(1R,6R)-3-methyl-6-prop-1-en-2-ylcyclohex-2-en-1-yl]-5-propylbenzene-1,3-diol] | 35.6 ± 2.4 | 21.7 ± 1.1 | 70.2 ± 5.3 | 40.2 ± 2.4 | 26.7 ± 1.3 | 88.6 ± 7.2 | 76.2 ± 6.5 | induce necrosis | 72.1 ± 5.8 | 21.2 ± 1.1 | 14.3 ± 1 | 26.5 ± 2.1 | 82.1 ± 5.2 | 54.6 ± 4.4 | high cytotoxicity | –
CCCCCc1cc(O)c(C/C=C(\C)CCC=C(C)C)c(O)c1 [CBG, 2-[(2E)-3,7-dimethylocta-2,6-dienyl]-5-pentylbenzene-1,3-diol] | 1.6 ± 0.2 | 31.4 ± 1.9 | 99.3 ± 8.2 | 69.1 ± 5.5 | 35.9 ± 2.2 | 97.4 ± 6.5 | 87.7 ± 5.8 | induce necrosis | 104 ± 8.2 | 96.4 ± 7.3 | 44.8 ± 1.04 | 35 ± 1.8 | 105.4 ± 4.4 | 84.6 ± 5.5 | – | higher activity
CCCCCc1cc(O)c2c(c1)OC(C)(C)c1ccc(C)cc1-2 [CBN, 6,6,9-trimethyl-3-pentylbenzo[c]chromen-1-ol] | 3.3 ± 0.1 | 23.6 ± 0.9 | 102.6 ± 7.4 | 81.1 ± 7.7 | 26.5 ± 1.8 | 89.6 ± 6.6 | 61.1 ± 4.8 | induce necrosis | 117 ± 7.7 | 81.7 ± 7.7 | 29 ± 3.07 | 28.5 ± 2.2 | 89.2 ± 5.9 | 60.6 ± 3.8 | – | higher activity
